Results: patent EP1333824B1, “TREATMENT OF SEXUAL DYSFUNCTION WITH BOMBESIN RECEPTOR ANTAGONISTS” (Warner-Lambert Company LLC, priority 2000, dated 2002)

Biological target: T1, human GRP receptor (BB2) (Homo sapiens, UniProt P30550)
T1 construct: expressed in transfected cells
Test: BB2 binding assay ([125I][Tyr4]bombesin, CHO-K1 cell membranes)
Description: In the following experiments, measurement of BB1 and BB2 binding was as follows. […] The final pellet was resuspended in assay buffer to a final cell concentration of 1.5 × 10^5/mL. […] Nonspecific binding was defined by 1µM bombesin. […] Radioactivity bound was determined using a gamma counter.
All competition data was analysed using nonlinear regression utilizing iterative curve-plotting procedures in Prism® (GraphPad Software Inc., San Diego, USA).

[1] = Table 7, N-terminal sulfonamide derivatives

T1 sequence (P30550 whole entry): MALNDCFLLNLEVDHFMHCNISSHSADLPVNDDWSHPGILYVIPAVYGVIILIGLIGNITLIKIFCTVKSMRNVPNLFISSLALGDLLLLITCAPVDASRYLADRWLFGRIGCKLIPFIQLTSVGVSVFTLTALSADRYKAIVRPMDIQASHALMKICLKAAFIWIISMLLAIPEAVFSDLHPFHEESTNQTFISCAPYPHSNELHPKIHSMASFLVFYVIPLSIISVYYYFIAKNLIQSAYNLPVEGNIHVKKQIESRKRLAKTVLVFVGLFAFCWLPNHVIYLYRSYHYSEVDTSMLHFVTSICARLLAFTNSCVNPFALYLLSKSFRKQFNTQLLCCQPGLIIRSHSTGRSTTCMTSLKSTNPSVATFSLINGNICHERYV

Row | Compound | IC50 [1] [µM] | also measured
1 | C[C@@](Cc1c[nH]c2ccccc12)(NS(=O)(=O)c1cccc(C#N)c1)C(=O)NCC1(c2ccccn2)CCCCC1 [Example 143, (S)-2-(3-Cyano-benzenesulfonylamino)-3-(1H-indol-3-yl)-2-methyl-N-(1-pyridin-2-yl-cyclohexylmethyl)-propionamide] | > 10 | –
2 | C[C@@](Cc1c[nH]c2ccccc12)(NS(=O)(=O)c1ccc(Cl)c(C(F)(F)F)c1)C(=O)NCC1(c2ccccn2)CCCCC1 [Example 166, (S)-2-(Chloro-trifluoromethyl-benzenesulfonylamino)-3-(1H-indol-3-yl)-2-methyl-N-(1-pyridin-2-yl-cyclohexylmethyl)-propionamide] | > 10 | –
3 | C[C@@](Cc1c[nH]c2ccccc12)(NS(=O)(=O)c1ccc(OC(F)(F)F)cc1)C(=O)NCC1(c2ccccn2)CCCCC1 [Example 151, (S)-3-(1H-Indol-3-yl)-2-methyl-N-(1-pyridin-2-yl-cyclohexylmethyl)-2-(4-trifluoromethoxy-benzenesulfonylamino)-propion amide] | > 10 | –
4 | C[C@@](Cc1c[nH]c2ccccc12)(NS(=O)(=O)c1cnc(Cl)c(Br)c1)C(=O)NCC1(c2ccccn2)CCCCC1 [Example 161, (S)-2-(5-Bromo-6-chloro-pyridine-3-sulfonylamino)-3-(1H-indol-3-yl)-2-methyl-N-(1-pyridin-2-yl-cyclohexylmethyl)-propionamide] | > 10 | –
5 | Cn1cnc(S(=O)(=O)N[C@@](C)(Cc2c[nH]c3ccccc23)C(=O)NCC2(c3ccccn3)CCCCC2)c1 [Example 138, (S)-3-(1H-Indol-3-yl)-2-methyl-2-(1-methyl-1H-imidazole-4-sulfonylamino)-N-(1-pyridin-2-yl-cyclohexylmethyl)-propionamide] | > 10 | –
6 | C[C@@](Cc1c[nH]c2ccccc12)(NS(=O)(=O)c1ccc(Cl)cc1[N+](=O)[O-])C(=O)NCC1(c2ccccn2)CCCCC1 [Example 149, (S)-2-(4-Chloro-2-nitro-benzenesulfonylamino)-3-(1H-indol-3-yl)-2-methyl-N-(1-pyridin-2-yl-cyclohexylmethyl)-propionamide] | > 10 | –
7 | Cc1ccc(S(=O)(=O)N[C@@](C)(Cc2c[nH]c3ccccc23)C(=O)NCC2(c3ccccn3)CCCCC2)cc1 [Example 112, (S)-3-(1H-Indol-3-yl)-2-methyl-N-(1-pyridin-2-yl-cyclohexylmethyl)-2-(toluene-4-sulfonylamino)-propionamide] | > 10 | –
8 | C[C@@](Cc1c[nH]c2ccccc12)(NS(=O)(=O)c1ccc(C(F)(F)F)cc1)C(=O)NCC1(c2ccccn2)CCCCC1 [Example 127, (S)-3-(1H-Indol-3-yl)-2-methyl-N-(1-pyridin-2-yl-cyclohexylmethyl)-2-(4-trifluoromethyl-benzenesulfonylamino)-propionamide] | > 10 | –
9 | C[C@@](Cc1c[nH]c2ccccc12)(NS(=O)(=O)c1ccc(Cl)c(Cl)c1)C(=O)NCC1(c2ccccn2)CCCCC1 [Example 125, (S)-2-(3,4-Dichloro-benzenesulfonylamino)-3-(1H-indol-3-yl)-2-methyl-N-(1-pyridin-2-yl-cyclohexylmethyl)-propionamide] | > 10 | –
10 | C[C@@](Cc1c[nH]c2ccccc12)(NS(=O)(=O)c1ccc(S(=O)(=O)c2ccccc2)s1)C(=O)NCC1(c2ccccn2)CCCCC1 [Example 150, (S)-2-(5-Benzenesulfonyl-thiophene-2-sulfonylamino)-3-(1H-indol-3-yl)-2-methyl-N-(1-pyridin-2-yl-cyclohexylmethyl)-propionamide] | > 10 | –
11 | C[C@@](Cc1c[nH]c2ccccc12)(NS(=O)(=O)c1ccc(-c2ccccn2)s1)C(=O)NCC1(c2ccccn2)CCCCC1 [Example 160, (S)-3-(1H-Indol-3-yl)-2-methyl-N-(1-pyridin-2-yl-cyclohexylmethyl)-2-(5-pyridin-2-yl-thiophene-2-sulfonylamino)-propionamide] | > 10 | –
12 | COc1cc(C)ccc1S(=O)(=O)N[C@@](C)(Cc1c[nH]c2ccccc12)C(=O)NCC1(c2ccccn2)CCCCC1 [Example 159, (S)-3-(1H-Indol-3-yl)-2-(2-methoxy-4-methyl-benzenesulfonylamino)-2-methyl-N-(1-pyridin-2-yl-cyclohexylmethyl)-propionamide] | > 10 | –
13 | C[C@@](Cc1c[nH]c2ccccc12)(NS(=O)(=O)c1ccc(C#N)cc1)C(=O)NCC1(c2ccccn2)CCCCC1 [Example 133, (S)-2-(4-Cyano-benzenesulfonylamino)-3-(1H-indol-3-yl)-2-methyl-N-(1-pyridin-2-yl-cyclohexylmethyl)-propionamide] | > 10 | –
14 | C[C@@](Cc1c[nH]c2ccccc12)(NS(=O)(=O)c1ccc2ccccc2c1)C(=O)NCC1(c2ccccn2)CCCCC1 [Example 118, (S)-3-(1H-Indol-3-yl)-2-methyl-2-(naphthalene-2-sulfonylamino)-N-(1-pyridin-2-yl-cyclohexylmethyl)-propionamide] | > 10 | –
15 | CCCCc1ccc(S(=O)(=O)N[C@@](C)(Cc2c[nH]c3ccccc23)C(=O)NCC2(c3ccccn3)CCCCC2)cc1 [Example 168, (S)-2-(4-Butyl-benzenesulfonylamino)-3-(1H-indol-3-yl)-2-methyl-N-(1-pyridin-2-yl-cyclohexylmethyl)-propionamide] | > 10 | –
16 | C[C@@](Cc1c[nH]c2ccccc12)(NS(=O)(=O)c1cccc2nsnc12)C(=O)NCC1(c2ccccn2)CCCCC1 [Example 137, (S)-2-(Benzo[1,2,5]thiadiazole-4-sulfonylamino)-3-(1H-indol-3-yl)-2-methyl-N-(1-pyridin-2-yl-cyclohexylmethyl)-propionamide] | > 10 | –
17 | Cc1nn(C)c(Cl)c1S(=O)(=O)N[C@@](C)(Cc1c[nH]c2ccccc12)C(=O)NCC1(c2ccccn2)CCCCC1 [Example 135, (S)-2-(5-Chloro-1,3-dimethyl-1H-pyrazole-4-sulfonylamino)-3-(1H-indol-3-yl)-2-methyl-N-(1-pyridin-2-yl-cyclohexylmethyl)-propionamide] | > 10 | –
18 | C[C@@](Cc1c[nH]c2ccccc12)(NC(=O)c1ccoc1)C(=O)NCC1(c2ccccn2)CCCCC1 [Example 59, Furan-3-carboxylic acid {(S)-2-(1H-indol-3-yl)-1-methyl-1-[(1-pyridin-2-yl-cyclohexylmethyl)-carbamoyl]-ethyl}-amide] | – | IC50 (Table 3, N-acyl derivatives): > 10 µM
19 | C[C@@](Cc1c[nH]c2ccccc12)(NS(=O)(=O)c1cccc2cccc([N+](=O)[O-])c12)C(=O)NCC1(c2ccccn2)CCCCC1 [Example 146, (S)-3-(1H-Indol-3-yl)-2-methyl-2-(8-nitro-naphthalene-1-sulfonylamino)-N-(1-pyridin-2-yl-cyclohexylmethyl)-propionamide] | > 10 | –
20 | C[C@@](Cc1c[nH]c2ccccc12)(NS(=O)(=O)c1cccc2nonc12)C(=O)NCC1(c2ccccn2)CCCCC1 [Example 139, (S)-2-(Benzo[1,2,5]oxadiazole-4-sulfonylamino)-3-(1H-indol-3-yl)-2-methyl-N-(1-pyridin-2-yl-cyclohexylmethyl)-propionamide] | > 10 | –
21 | COc1ccc(S(=O)(=O)N[C@@](C)(Cc2c[nH]c3ccccc23)C(=O)NCC2(c3ccccn3)CCCCC2)cc1OC [Example 132, (S)-2-(3,4-Dimethoxy-benzenesulfonylamino)-3-(1H-indol-3-yl)-2-methyl-N-(1-pyridin-2-yl-cyclohexylmethyl)-propionamide] | > 10 | –
22 | C[C@@](Cc1c[nH]c2ccccc12)(NC(=O)c1ccco1)C(=O)NCC1(c2ccccn2)CCCCC1 [Example 60, Furan-2-carboxylic acid {(S)-2-(1H-indol-3-yl)-1-methyl-1-[(1-pyridin-2-yl-cyclohexylmethyl)-carbamoyl]-ethyl}-amide] | – | IC50 (Table 3, N-acyl derivatives): > 10 µM
23 | COC(=O)c1ccccc1S(=O)(=O)N[C@@](C)(Cc1c[nH]c2ccccc12)C(=O)NCC1(c2ccccn2)CCCCC1 [Example 155, 2-{(S)-2-(1H-Indol-3-yl)-1-methyl-1-[(1-pyridin-2-yl-cyclohexylmethyl)-carbamoyl]-ethylsulfamoyl} -benzoic acid methyl ester] | > 10 | –
24 | C[C@@](Cc1c[nH]c2ccccc12)(NC(=O)c1cnc2ccccc2n1)C(=O)NCC1(c2ccccn2)CCCCC1 [Example 78, Quinoxaline-2-carboxylic acid {(S)-2-(1H-indol-3-yl)-1-methyl-1-[(1-pyridin-2-yl-cyclohexylmethyl)-carbamoyl]-ethyl}-amide] | – | IC50 (Table 3, N-acyl derivatives): > 10 µM
25 | C[C@@](Cc1c[nH]c2ccccc12)(NS(=O)(=O)c1ccc([N+](=O)[O-])cc1)C(=O)NCC1(c2ccccn2)CCCCC1 [Example 123, (S)-3-(1H-Indol-3-yl)-2-methyl-2-(4-nitro-benzenesulfonylamino)-N-(1-pyridin-2-yl-cyclohexylmethyl)-propionamide] | > 10 | –
26 | COC(=O)c1sccc1S(=O)(=O)N[C@@](C)(Cc1c[nH]c2ccccc12)C(=O)NCC1(c2ccccn2)CCCCC1 [Example 140, 3-{(S)-2-(1H-Indol-3-yl)-1-methyl-1-[(1-pyridin-2-yl-cyclohexylmethyl)-carbamoyl]-ethylsulfamoyl}-thiophene-2-carboxylic acid methyl ester] | > 10 | –
27 | C[C@@](Cc1c[nH]c2ccccc12)(NC(=O)OCc1ccc2ncccc2c1)C(=O)NCC1(c2ccccn2)CCCCC1 [Example 110, {(S)-2-(1H-Indol-3-yl)-1-methyl-1-[(1-pyridin-2-yl-cyclohexylmethyl)-carbamoyl]-ethyl}-carbamic acid quinolin-6-ylmethyl ester] | – | IC50 (Table 5, N-terminal urethane derivatives): > 10 µM
28 | C[C@@](Cc1c[nH]c2ccccc12)(NS(=O)(=O)c1ccccc1C#N)C(=O)NCC1(c2ccccn2)CCCCC1 [Example 134, (S)-2-(2-Cyano-benzenesulfonylamino)-3-(1H-indol-3-yl)-2-methyl-N-(1-pyridin-2-yl-cyclohexylmethyl)-propionamide] | > 10 | –
